Measured values from patent publication US20240066136A1, “MODIFIED PROTEINS AND PROTEIN DEGRADERS” (Cullgen (Shanghai), Inc., priority 2020, published 2024).

What was measured:
Human DDB1 = Human DDB1 (Homo sapiens (Human), UniProt Q16531); experiment: Surface plasmon resonance (SPR) binding assay to immobilized His-DDB1; conditions: SPR, DDB1 binding moieties with linkers and/or target protein binding moiety; read-out: Binding (Kd)
Summary of the method: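 Baculovirus-expressed His-DDB1 (High5 cells) amine-coupled to 11,000–13,000 RU on a CM5 chip; compounds injected in multi-cycle format without regeneration at 25° C in HBS-EP pH 7.4 (120 s association/dissociation). Double-referenced, solvent-corrected data fit to steady-state affinity model for KD.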

CDK6 = CDK6 (Homo sapiens (Human), UniProt Q00534); experiment: Immunoblot of CDK6 protein in Calu-1 cells; assay type: cell-based; conditions: 1 μM, 16 hours after administration
CDK6, sequence (Q00534 whole entry): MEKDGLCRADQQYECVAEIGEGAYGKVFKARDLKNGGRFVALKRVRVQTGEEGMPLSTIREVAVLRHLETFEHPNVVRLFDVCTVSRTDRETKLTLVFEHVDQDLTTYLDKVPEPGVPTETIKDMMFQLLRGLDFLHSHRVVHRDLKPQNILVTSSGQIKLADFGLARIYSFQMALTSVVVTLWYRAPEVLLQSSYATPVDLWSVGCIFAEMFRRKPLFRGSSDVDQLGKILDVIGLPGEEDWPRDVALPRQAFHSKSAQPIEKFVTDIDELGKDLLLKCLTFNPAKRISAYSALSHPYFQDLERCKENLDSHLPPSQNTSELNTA
Experimental: (§1) Additional heterobifunctional compounds were designed and tested for their ability to target and degrade another two target proteins, CDK4 and CDK6. Calu-1 cells that express CDK4/6 proteins were treated with heterobifunctional compounds disclosed herein (D-44 to D-49) at indicated concentrations for 16 hours. Cells were collected, lysed and subject to immunoblotting using an antibody specific to CDK4, CDK6 or phosphorylated Rb proteins. Tubulin was included as the loading control. DMSO treatment was used as the negative control. […] In addition, Calu-1 cells were treated with 1 μM D-48 or D-49 for an indicated period of time. Subsequently, changes in CDK4 and CDK6 protein levels were measured by immunoblotting. […] These experiments highlight the ability of DDB1 binder derived heterobifunctional compounds to degrade multiple different target proteins, including but not limited to epigenetic target proteins, such as CBP and p300, and kinases, such as CDK4 and CDK6.

CDK4 = CDK4 (Homo sapiens (Human), UniProt P11802); experiment: Immunoblot of CDK4 protein in Calu-1 cells; assay type: cell-based; conditions: 1 μM, 16 hours after administration
CDK4, sequence (P11802 whole entry): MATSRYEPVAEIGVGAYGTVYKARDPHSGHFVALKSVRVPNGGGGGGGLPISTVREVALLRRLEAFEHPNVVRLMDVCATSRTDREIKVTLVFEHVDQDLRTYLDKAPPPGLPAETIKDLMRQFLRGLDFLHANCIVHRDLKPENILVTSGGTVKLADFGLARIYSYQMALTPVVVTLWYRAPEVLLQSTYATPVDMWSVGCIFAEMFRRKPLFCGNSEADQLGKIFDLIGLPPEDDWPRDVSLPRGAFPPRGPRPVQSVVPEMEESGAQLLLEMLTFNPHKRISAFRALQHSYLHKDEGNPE
Experimental: as §1

P300 [1] = molecular target: T1, P300 (Homo sapiens (Human), UniProt Q09472); experiment: Immunoblot of P300 in Calu-1 cells with co-administered proteasome, neddylation or DDB1-ligand competitor; assay type: cell-based
T1 sequence (Q09472 whole entry): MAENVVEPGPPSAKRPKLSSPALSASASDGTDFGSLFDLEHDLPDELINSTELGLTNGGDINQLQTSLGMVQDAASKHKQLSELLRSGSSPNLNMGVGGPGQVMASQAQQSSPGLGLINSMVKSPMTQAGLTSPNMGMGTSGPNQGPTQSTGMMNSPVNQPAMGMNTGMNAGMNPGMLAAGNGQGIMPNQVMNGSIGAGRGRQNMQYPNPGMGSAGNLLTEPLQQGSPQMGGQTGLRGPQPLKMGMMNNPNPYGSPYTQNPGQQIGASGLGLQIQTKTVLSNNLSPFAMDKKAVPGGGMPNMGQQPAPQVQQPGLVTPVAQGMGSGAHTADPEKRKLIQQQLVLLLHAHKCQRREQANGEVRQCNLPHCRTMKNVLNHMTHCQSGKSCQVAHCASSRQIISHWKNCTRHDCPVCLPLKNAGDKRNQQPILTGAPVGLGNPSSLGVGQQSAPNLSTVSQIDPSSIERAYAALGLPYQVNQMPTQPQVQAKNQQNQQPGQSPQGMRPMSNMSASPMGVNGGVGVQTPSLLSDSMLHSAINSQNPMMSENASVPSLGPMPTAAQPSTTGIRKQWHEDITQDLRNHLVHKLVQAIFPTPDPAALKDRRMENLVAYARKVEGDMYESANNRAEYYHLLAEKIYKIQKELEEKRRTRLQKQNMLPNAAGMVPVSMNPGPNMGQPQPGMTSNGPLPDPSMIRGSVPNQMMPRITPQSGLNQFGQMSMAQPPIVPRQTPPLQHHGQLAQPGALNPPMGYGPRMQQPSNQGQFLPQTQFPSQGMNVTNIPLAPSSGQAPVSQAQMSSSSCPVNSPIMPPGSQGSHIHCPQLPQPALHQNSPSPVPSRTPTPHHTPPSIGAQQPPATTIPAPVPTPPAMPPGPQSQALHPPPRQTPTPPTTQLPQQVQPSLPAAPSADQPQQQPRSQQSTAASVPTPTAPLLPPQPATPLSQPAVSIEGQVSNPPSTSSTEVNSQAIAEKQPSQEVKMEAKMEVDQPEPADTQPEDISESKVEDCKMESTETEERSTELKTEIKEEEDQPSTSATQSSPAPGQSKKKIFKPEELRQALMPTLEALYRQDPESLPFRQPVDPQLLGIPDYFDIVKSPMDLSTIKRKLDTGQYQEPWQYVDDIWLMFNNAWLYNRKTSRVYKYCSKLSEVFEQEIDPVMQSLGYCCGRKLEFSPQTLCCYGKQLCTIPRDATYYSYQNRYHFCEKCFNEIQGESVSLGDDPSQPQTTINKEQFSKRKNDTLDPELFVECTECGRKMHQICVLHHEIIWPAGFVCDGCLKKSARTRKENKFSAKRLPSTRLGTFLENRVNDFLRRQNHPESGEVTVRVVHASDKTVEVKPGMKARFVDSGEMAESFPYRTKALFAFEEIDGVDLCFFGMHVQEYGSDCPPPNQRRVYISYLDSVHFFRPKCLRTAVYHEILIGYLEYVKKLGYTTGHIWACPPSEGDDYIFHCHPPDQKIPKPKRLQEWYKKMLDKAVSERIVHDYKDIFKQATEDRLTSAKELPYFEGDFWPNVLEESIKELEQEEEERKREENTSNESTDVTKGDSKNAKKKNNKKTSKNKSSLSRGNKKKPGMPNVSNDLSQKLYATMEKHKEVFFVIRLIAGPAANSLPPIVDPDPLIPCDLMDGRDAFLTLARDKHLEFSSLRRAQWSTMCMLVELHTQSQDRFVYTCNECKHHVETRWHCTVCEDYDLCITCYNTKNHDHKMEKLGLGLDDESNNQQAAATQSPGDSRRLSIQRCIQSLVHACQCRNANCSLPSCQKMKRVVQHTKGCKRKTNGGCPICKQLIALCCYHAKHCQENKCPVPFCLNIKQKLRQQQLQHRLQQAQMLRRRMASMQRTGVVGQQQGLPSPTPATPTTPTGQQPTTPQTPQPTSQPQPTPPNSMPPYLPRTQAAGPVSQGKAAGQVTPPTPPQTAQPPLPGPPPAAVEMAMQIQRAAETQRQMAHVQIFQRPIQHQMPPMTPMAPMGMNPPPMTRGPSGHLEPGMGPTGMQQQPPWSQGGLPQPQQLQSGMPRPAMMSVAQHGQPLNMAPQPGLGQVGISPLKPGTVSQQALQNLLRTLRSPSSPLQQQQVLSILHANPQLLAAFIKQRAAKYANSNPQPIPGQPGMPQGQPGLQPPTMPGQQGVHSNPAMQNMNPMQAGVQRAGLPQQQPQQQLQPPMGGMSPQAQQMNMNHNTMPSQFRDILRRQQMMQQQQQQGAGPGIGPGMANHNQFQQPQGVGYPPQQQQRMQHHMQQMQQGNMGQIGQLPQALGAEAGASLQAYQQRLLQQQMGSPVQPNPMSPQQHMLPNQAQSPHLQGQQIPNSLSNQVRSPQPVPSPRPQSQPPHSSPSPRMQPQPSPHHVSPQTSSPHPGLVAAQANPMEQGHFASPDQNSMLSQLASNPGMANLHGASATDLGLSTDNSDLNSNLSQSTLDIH
Text: The heterobifunctional compound-mediated p300 and CBP degradation was dependent on the ubiquitin-proteasome system and cullin E3 ligase. […] The binding with DDB1 also played a role in the heterobifunctional compounds ability to induce degradation of P300 and CBP proteins.

LNCaP cells = experiment: LNCaP cell viability (CellTiter-Glo); assay type: cell-based; conditions: three days
Experimental: LNCaP cells seeded in 96-well plates were treated with 10 μM GNE-781 or selected heterobifunctional compounds, following a 12-point 3-fold serial dilution. Three days after treatment, cell viability was determined using the CellTiter-Glo Kit (Promega). Cell viability was normalized to the mean values of 3 replicates of untreated cells. Dose-dependent response was analyzed following the least-squares non-linear regression method using the GraphPad Prism software.

CBP = CBP (Homo sapiens (Human), UniProt Q92793); experiment: Immunoblot of CBP protein in LNCaP cells after compound treatment; assay type: cell-based
Experimental: (§2) Experiments were performed to see if heterobifunctional compounds as described herein could degrade target proteins. Specific exemplary heterobifunctional compounds were characterized in LNCaP and Calu-1 cells. LNCaP cells that express P300/CBP proteins were treated with heterobifunctional compounds disclosed herein (D-2, D-13, or D-7) at indicated concentrations for 8 hours. Cells were collected, lysed and subject to immunoblotting using an antibody specific to P300 or CBP proteins. Vinculin was included as the loading control. DMSO treatment was used as the negative control. […] In addition, LNCaP cells were treated with 500 nM of D-2, or D-13 for indicated period of time. Subsequently, changes in P300 and CBP protein levels were measured by immunoblotting.

P300 [2] = molecular target: T1, P300; experiment: Immunoblot of P300 protein in LNCaP cells after compound treatment; assay type: cell-based
Experimental: as §2

[3] = indicated concentrations, 8 hours, immunoblot

Human DDB1, sequence (Q16531 whole entry): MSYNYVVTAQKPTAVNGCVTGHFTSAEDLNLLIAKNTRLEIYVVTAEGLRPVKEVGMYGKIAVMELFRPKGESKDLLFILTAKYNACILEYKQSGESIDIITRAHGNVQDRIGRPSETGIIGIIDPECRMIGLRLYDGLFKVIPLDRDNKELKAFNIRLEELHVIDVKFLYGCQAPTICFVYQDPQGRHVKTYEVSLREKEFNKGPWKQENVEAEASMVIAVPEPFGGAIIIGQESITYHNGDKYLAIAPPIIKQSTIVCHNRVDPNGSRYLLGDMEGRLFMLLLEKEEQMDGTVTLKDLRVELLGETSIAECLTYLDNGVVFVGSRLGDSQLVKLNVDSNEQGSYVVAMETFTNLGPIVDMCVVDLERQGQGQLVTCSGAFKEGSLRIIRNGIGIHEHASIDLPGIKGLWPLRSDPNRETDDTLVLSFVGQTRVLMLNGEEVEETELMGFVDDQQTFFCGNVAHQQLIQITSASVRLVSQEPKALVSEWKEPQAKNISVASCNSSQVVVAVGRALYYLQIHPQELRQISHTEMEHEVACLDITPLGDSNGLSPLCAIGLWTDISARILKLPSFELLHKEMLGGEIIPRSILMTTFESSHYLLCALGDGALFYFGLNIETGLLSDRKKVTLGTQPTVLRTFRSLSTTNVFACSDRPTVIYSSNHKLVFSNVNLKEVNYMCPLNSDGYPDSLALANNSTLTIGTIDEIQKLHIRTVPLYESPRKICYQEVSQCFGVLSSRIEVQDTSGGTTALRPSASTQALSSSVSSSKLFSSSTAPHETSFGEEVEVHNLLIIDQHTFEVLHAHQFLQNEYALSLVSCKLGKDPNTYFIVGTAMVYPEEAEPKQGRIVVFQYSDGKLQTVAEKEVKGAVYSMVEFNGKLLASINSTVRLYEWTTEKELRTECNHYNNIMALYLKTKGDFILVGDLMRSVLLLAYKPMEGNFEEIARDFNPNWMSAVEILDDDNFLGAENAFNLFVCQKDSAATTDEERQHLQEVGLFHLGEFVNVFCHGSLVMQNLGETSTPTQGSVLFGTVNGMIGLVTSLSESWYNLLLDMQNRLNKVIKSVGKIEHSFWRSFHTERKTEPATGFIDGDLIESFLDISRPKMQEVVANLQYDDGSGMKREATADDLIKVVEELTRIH

Row | SMILES | Kd (Human DDB1) | degradation of CDK6 (CDK6) | degradation of CDK4 (CDK4) | compound-induced degradation under co-administration of MG-132 or bortezomib (BTZ), or MLN4924 (P300 [1]) | viability of LNCaP cells (LNCaP cells; 10 μM top, 12-point 3-fold serial dilution) | inhibitory effects on the growth of LNCaP cells compared to GNE-781 (LNCaP cells) | time at which significant degradation of CBP was detected (CBP; 500 nM, time course) | CBP protein levels (CBP; [3]) | time at which significant degradation of P300 was detected (P300 [2]; 500 nM, time course) | P300 protein levels (P300 [2]; [3])
1 | CC(=O)Nc1cc(NCCOCCOCCOCCOCCOCCOCCNC(=O)CN2CCN(c3ccc(Nc4ncc5c(C)c(C(C)=O)c(=O)n(C6CCCC6)c5n4)nc3)CC2)ccc1C(=O)Nc1nc(C)c([N+](=O)[O-])s1 [D-49, 2-Acetamido-4-((1-(4-(6-((6-acetyl-8-cyclopentyl-5-methyl-7-oxo-7,8-dihydropyrido[2,3-d]pyrimidin-2-yl)amino)pyridin-3-yl)piperazin-1-yl)-2-oxo-6,9,12,15,18,21-hexaoxa-3-azatricosan-23-yl)amino)-N-(4-methyl-5-nitrothiazol-2-yl)benzamide] | < 20 µM | Significant degradation | Significant degradation |  |  |  |  |  |  | 
2 | CC(=O)Nc1cc(NCCOCCOCCOCCOCCOCCNC(=O)CN2CCN(c3ccc(Nc4ncc5c(C)c(C(C)=O)c(=O)n(C6CCCC6)c5n4)nc3)CC2)ccc1C(=O)Nc1nc(C)c([N+](=O)[O-])s1 [D-48, 2-Acetamido-4-((1-(4-(6-((6-acetyl-8-cyclopentyl-5-methyl-7-oxo-7,8-dihydropyrido[2,3-d]pyrimidin-2-yl)amino)pyridin-3-yl)piperazin-1-yl)-2-oxo-6,9,12,15,18-pentaoxa-3-azaicosan-20-yl)amino)-N-(4-methyl-5-nitrothiazol-2-yl)benzamide] | < 20 µM | Significant degradation | Significant degradation |  |  |  |  |  |  | 
3 | CC(=O)Nc1cc(NCCCCNC(=O)CN2CCC(n3nc(N4CCCc5cc(-c6cnn(C)c6)c(C(F)F)cc54)c4c3CCN(C(C)=O)C4)CC2)ccc1C(=O)Nc1nc(C)c([N+](=O)[O-])s1 [D-2, 2-Acetamido-4-((4-(2-(4-(5-acetyl-3-(7-(difluoromethyl)-6-(1-methyl-1H-pyrazol-4-yl)-3,4-dihydroquinolin-1 (2H)-yl)-4,5,6,7-tetrahydro-1H-pyrazolo[4,3-c]pyridin-1-yl)piperidin-1-yl)acetamido)butyl)amino)-N-(4-methyl-5-nitrothiazol-2-yl)benzamide] | 20 to 100 µM |  |  | compromised | dose-dependently suppressed viability of LNCaP cells | more potent inhibitory effects | 2 to 4 h | significantly decreased in a concentration-dependent manner | 2 to 4 h | significantly decreased in a concentration-dependent manner
